From patent publication US12723063B2, “GIPR-agonist compounds” (Eli Lilly and Company, priority 2019, dated 2026)
*1 amine or outer side, *2 acyl side, *3 side chain or, on linkers, in order; H or OH if unused. Where a SMILES comes first, the peptide text is derived from it. Side-chain parts run from the residue outwards. [ ]: non-standard residue; d: D form. The star is where a group is joined. C20 diacid = O=C(O)CCCCCCCCCCCCCCCCCCC(=O)*; αMePhe(2-F) = C[C@](N)(Cc1ccccc1F)C(=O)O; γGlu = O=C(O)[C@H](CCC(=O)[*:2])N[*:1]; αMeF = C[C@](N)(Cc1ccccc1)C(=O)O; 4Pal = N[C@@H](Cc1ccncc1)C(=O)O; αMeL = CC(C)C[C@](C)(N)C(=O)O; AEEA = NCCOCCOCC(=O)O; Aib = CC(C)(N)C(=O)O

Tests used:
Assay in all cases: cAMP functional assay (HTRF) in HEK293 cells in presence of 0.1% casein
Format in all cases: cell-based
[1] = target: T1, human glucose-dependent insulinotropic peptide receptor (GIPR) (Homo sapiens, UniProt P48546); conditions: HEK293 cells expressing human GIPR, geometric mean, read-out: hGIPR cAMP Rel EC50 nM (SEM, n)
T1 construct: expressed in transfected cells; host or cells: HEK293
T1 sequence (P48546 22-466): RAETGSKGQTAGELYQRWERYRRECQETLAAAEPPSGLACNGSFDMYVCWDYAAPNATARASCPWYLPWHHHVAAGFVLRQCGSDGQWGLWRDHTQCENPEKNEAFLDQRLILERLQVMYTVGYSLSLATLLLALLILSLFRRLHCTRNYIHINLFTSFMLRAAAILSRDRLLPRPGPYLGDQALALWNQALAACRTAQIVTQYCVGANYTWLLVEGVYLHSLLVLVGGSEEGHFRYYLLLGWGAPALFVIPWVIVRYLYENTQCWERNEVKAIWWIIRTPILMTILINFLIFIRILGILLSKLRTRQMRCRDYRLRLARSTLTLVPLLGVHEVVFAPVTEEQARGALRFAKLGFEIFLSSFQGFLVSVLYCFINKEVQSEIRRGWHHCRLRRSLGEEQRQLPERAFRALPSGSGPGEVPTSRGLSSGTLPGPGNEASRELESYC

[2] = target: T2, human GLP-1 receptor (GLP-1R) (Homo sapiens, UniProt P43220); conditions: HEK293 cells expressing human GLP-1R, geometric mean, read-out: hGLP1R cAMP Rel EC50 nM (SEM, n)
T2 construct: expressed in transfected cells; host or cells: HEK293

[3] = target: T3, human glucagon receptor (GcgR) (Homo sapiens, UniProt P47871); conditions: HEK293 cells expressing human GcgR, geometric mean, read-out: hGcgR cAMP Rel EC50 nM (SEM, n)
T3 construct: expressed in transfected cells; host or cells: HEK293
T3 sequence (P47871 26-477): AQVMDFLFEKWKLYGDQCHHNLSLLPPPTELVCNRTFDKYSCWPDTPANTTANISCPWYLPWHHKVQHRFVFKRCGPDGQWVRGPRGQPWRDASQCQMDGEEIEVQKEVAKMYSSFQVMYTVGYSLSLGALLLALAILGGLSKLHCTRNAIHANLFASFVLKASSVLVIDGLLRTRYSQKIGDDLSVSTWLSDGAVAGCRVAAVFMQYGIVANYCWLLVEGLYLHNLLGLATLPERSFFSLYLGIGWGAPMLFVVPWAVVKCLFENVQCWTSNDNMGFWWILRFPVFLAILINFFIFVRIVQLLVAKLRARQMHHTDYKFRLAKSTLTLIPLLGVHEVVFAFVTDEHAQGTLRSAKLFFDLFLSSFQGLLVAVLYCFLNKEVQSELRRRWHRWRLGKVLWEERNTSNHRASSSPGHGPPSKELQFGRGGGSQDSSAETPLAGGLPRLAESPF

T2 sequence (P43220 24-463): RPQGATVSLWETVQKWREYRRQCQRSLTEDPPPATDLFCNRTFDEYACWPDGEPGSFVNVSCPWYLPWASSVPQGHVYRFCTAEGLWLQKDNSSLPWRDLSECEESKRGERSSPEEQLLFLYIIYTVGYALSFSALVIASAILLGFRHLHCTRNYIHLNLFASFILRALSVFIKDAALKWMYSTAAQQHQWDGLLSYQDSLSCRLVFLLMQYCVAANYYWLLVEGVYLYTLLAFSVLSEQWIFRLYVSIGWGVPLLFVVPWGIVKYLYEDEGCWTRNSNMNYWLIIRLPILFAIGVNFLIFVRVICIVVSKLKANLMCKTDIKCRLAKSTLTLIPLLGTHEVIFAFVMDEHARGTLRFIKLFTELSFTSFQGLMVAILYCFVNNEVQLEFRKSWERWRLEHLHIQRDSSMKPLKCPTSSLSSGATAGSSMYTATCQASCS

| SMILES | EC50 [1] [nM] | EC50 [2] [nM] | EC50 [3] [nM] |
| --- | --- | --- | --- |
| CC[C@H](C)[C@H](NC(=O)[C@H](CO)NC(=O)[C@H](Cc1ccc(O)cc1)NC(=O)[C@H](CC(=O)O)NC(=O)[C@H](CO)NC(=O)[C@@H](NC(=O)[C@](C)(Cc1ccccc1)NC(=O)[C@@H](NC(=O)CNC(=O)[C@H](CCC(=O)O)NC(=O)C(C)(C)NC(=O)[C@@H](N)Cc1ccc(O)cc1)[C@@H](C)O)[C@@H](C)CC)C(=O)N[C@@H](C)C(=O)N[C@@H](CC(C)C)C(=O)N[C@@H](CC(=O)O)C(=O)N[C@@H](CCCCN)C(=O)N[C@@H](CCCCNC(=O)COCCOCCNC(=O)COCCOCCNC(=O)CC[C@H](NC(=O)CCCCCCCCCCCCCCCCCCC(=O)O)C(=O)O)C(=O)N[C@@H](Cc1c[nH]cn1)C(=O)N[C@@H](CCC(N)=O)C(=O)NC(C)(C)C(=O)N[C@@H](CC(=O)O)C(=O)N[C@@H](Cc1ccccc1)C(=O)N[C@H](C(=O)N[C@@H](CCC(=O)O)C(=O)N[C@@H](Cc1ccncc1)C(=O)N[C@@H](CC(C)C)C(=O)N[C@@H](CC(C)C)C(=O)N[C@@H](CCC(=O)O)C(=O)N[C@@H](C)C(=O)NCC(=O)N1CCC[C@H]1C(=O)N[C@@H](CO)C(=O)N[C@@H](CO)C(=O)NCC(=O)N[C@@H](C)C(=O)N1CCC[C@H]1C(=O)N1CCC[C@H]1C(=O)N1CCC[C@H]1C(=O)N[C@@H](CO)C(N)=O)C(C)C [Example 43] (H-Y[Aib]EGT[αMeF]ISDYSIALDKK([AEEA-AEEA-γGlu-C20 diacid])HQ[Aib]DFVE[4Pal]LLEAGPSSGAPPPS-NH2) | 0.0154 | 1020 | > 5000 |
| CC[C@H](C)[C@H](NC(=O)[C@H](CO)NC(=O)[C@H](Cc1ccc(O)cc1)NC(=O)[C@H](CC(=O)O)NC(=O)[C@H](CO)NC(=O)[C@@H](NC(=O)[C@](C)(Cc1ccccc1F)NC(=O)[C@@H](NC(=O)CNC(=O)[C@H](CCC(=O)O)NC(=O)C(C)(C)NC(=O)[C@@H](N)Cc1ccc(O)cc1)[C@@H](C)O)[C@@H](C)CC)C(=O)N[C@@H](C)C(=O)N[C@@H](CC(C)C)C(=O)N[C@@H](CC(=O)O)C(=O)N[C@@H](CCCCN)C(=O)N[C@@H](CCCCNC(=O)COCCOCCNC(=O)COCCOCCNC(=O)CC[C@H](NC(=O)CCCCCCCCCCCCCCCCCCC(=O)O)C(=O)O)C(=O)N[C@@H](Cc1c[nH]cn1)C(=O)N[C@@H](CCC(N)=O)C(=O)NC(C)(C)C(=O)N[C@@H](CC(=O)O)C(=O)N[C@@H](Cc1ccccc1)C(=O)N[C@H](C(=O)N[C@@H](CCC(=O)O)C(=O)N[C@@H](Cc1ccc(O)cc1)C(=O)N[C@@H](CC(C)C)C(=O)N[C@@H](CC(C)C)C(=O)N[C@@H](CCC(=O)O)C(=O)NCC(=O)NCC(=O)N1CCC[C@H]1C(=O)N[C@@H](CO)C(=O)N[C@@H](CO)C(=O)NCC(=O)N[C@@H](C)C(=O)N1CCC[C@H]1C(=O)N1CCC[C@H]1C(=O)N1CCC[C@H]1C(=O)N[C@@H](CO)C(N)=O)C(C)C [Example 37] (H-Y[Aib]EGT[αMePhe(2-F)]ISDYSIALDKK([AEEA-AEEA-γGlu-C20 diacid])HQ[Aib]DFVEYLLEGGPSSGAPPPS-NH2) | 0.036 | 61.1 | > 5000 |
| CC[C@H](C)[C@H](NC(=O)[C@H](Cc1ccccc1)NC(=O)[C@@H](NC(=O)CNC(=O)[C@H](CCC(=O)O)NC(=O)C(C)(C)NC(=O)[C@@H](N)Cc1ccc(O)cc1)[C@@H](C)O)C(=O)N[C@@H](CO)C(=O)N[C@@H](CC(=O)O)C(=O)N[C@@H](Cc1ccc(O)cc1)C(=O)N[C@@H](CO)C(=O)N[C@H](C(=O)N[C@@](C)(CC(C)C)C(=O)N[C@@H](CC(C)C)C(=O)N[C@@H](CC(=O)O)C(=O)N[C@@H](CCCCN)C(=O)N[C@@H](CCCCNC(=O)COCCOCCNC(=O)COCCOCCNC(=O)CC[C@H](NC(=O)CCCCCCCCCCCCCCCCCCC(=O)O)C(=O)O)C(=O)N[C@@H](Cc1c[nH]cn1)C(=O)N[C@@H](CCC(N)=O)C(=O)NC(C)(C)C(=O)N[C@@H](CC(=O)O)C(=O)N[C@@H](Cc1ccccc1)C(=O)N[C@H](C(=O)N[C@@H](CCC(=O)O)C(=O)N[C@@H](Cc1ccncc1)C(=O)N[C@@H](CC(C)C)C(=O)N[C@@H](CC(C)C)C(=O)N[C@@H](CCC(=O)O)C(=O)N[C@@H](CCC(N)=O)C(=O)NCC(=O)N1CCC[C@H]1C(=O)N[C@@H](CO)C(=O)N[C@@H](CO)C(=O)NCC(=O)N[C@@H](C)C(=O)N1CCC[C@H]1C(=O)N1CCC[C@H]1C(=O)N1CCC[C@H]1C(=O)N[C@@H](CO)C(N)=O)C(C)C)[C@@H](C)CC [Example 46] (H-Y[Aib]EGTFISDYSI[αMeL]LDKK([AEEA-AEEA-γGlu-C20 diacid])HQ[Aib]DFVE[4Pal]LLEQGPSSGAPPPS-NH2) | 0.0294 | > 5000 | 863 |
| CC[C@H](C)[C@H](NC(=O)[C@H](Cc1ccccc1)NC(=O)[C@@H](NC(=O)CNC(=O)[C@H](CCC(=O)O)NC(=O)C(C)(C)NC(=O)[C@@H](N)Cc1ccc(O)cc1)[C@@H](C)O)C(=O)N[C@@H](CO)C(=O)N[C@@H](CC(=O)O)C(=O)N[C@@H](Cc1ccc(O)cc1)C(=O)N[C@@H](CO)C(=O)N[C@H](C(=O)N[C@@](C)(CC(C)C)C(=O)N[C@@H](CC(C)C)C(=O)N[C@@H](CC(=O)O)C(=O)N[C@@H](CCCCN)C(=O)N[C@@H](CCCCNC(=O)COCCOCCNC(=O)COCCOCCNC(=O)CC[C@H](NC(=O)CCCCCCCCCCCCCCCCCCC(=O)O)C(=O)O)C(=O)N[C@@H](Cc1c[nH]cn1)C(=O)N[C@@H](CCC(N)=O)C(=O)NC(C)(C)C(=O)N[C@@H](CCC(=O)O)C(=O)N[C@@H](Cc1ccccc1)C(=O)N[C@H](C(=O)N[C@@H](CCC(=O)O)C(=O)N[C@@H](Cc1ccncc1)C(=O)N[C@@H](CC(C)C)C(=O)N[C@@H](CC(C)C)C(=O)N[C@@H](C)C(=O)N[C@@H](CCC(N)=O)C(=O)NCC(=O)N1CCC[C@H]1C(=O)N[C@@H](CO)C(=O)N[C@@H](CO)C(=O)NCC(=O)N[C@@H](C)C(=O)N1CCC[C@H]1C(=O)N1CCC[C@H]1C(=O)N1CCC[C@H]1C(=O)N[C@@H](CO)C(N)=O)C(C)C)[C@@H](C)CC [Example 57] (H-Y[Aib]EGTFISDYSI[αMeL]LDKK([AEEA-AEEA-γGlu-C20 diacid])HQ[Aib]EFVE[4Pal]LLAQGPSSGAPPPS-NH2) | 0.0177 | > 5000 | 886 |
| CC[C@H](C)[C@H](NC(=O)[C@H](Cc1ccccc1)NC(=O)[C@@H](NC(=O)CNC(=O)[C@H](CCC(=O)O)NC(=O)C(C)(C)NC(=O)[C@@H](N)Cc1ccc(O)cc1)[C@@H](C)O)C(=O)N[C@@H](CO)C(=O)N[C@@H](CC(=O)O)C(=O)N[C@@H](Cc1ccc(O)cc1)C(=O)N[C@@H](CO)C(=O)N[C@H](C(=O)N[C@@](C)(CC(C)C)C(=O)N[C@@H](CC(C)C)C(=O)N[C@@H](CC(=O)O)C(=O)N[C@@H](CCCCN)C(=O)N[C@@H](CCCCNC(=O)COCCOCCNC(=O)COCCOCCNC(=O)CC[C@H](NC(=O)CCCCCCCCCCCCCCCCCCC(=O)O)C(=O)O)C(=O)N[C@@H](Cc1c[nH]cn1)C(=O)N[C@@H](CCC(N)=O)C(=O)NC(C)(C)C(=O)N[C@@H](CC(=O)O)C(=O)N[C@@H](Cc1ccccc1)C(=O)N[C@H](C(=O)N[C@@H](CCC(=O)O)C(=O)N[C@@H](Cc1ccc(O)cc1)C(=O)N[C@@H](CC(C)C)C(=O)N[C@@H](CC(C)C)C(=O)N[C@@H](CCC(=O)O)C(=O)NCC(=O)NCC(=O)N1CCC[C@H]1C(=O)N[C@@H](CO)C(=O)N[C@@H](CO)C(=O)NCC(=O)N[C@@H](C)C(=O)N1CCC[C@H]1C(=O)N1CCC[C@H]1C(=O)N1CCC[C@H]1C(=O)N[C@@H](CO)C(N)=O)C(C)C)[C@@H](C)CC [Example 69] (H-Y[Aib]EGTFISDYSI[αMeL]LDKK([AEEA-AEEA-γGlu-C20 diacid])HQ[Aib]DFVEYLLEGGPSSGAPPPS-NH2) | 0.0302 | > 5000 | 803 |
| CC[C@H](C)[C@H](NC(=O)[C@H](Cc1ccccc1)NC(=O)[C@@H](NC(=O)CNC(=O)[C@H](CCC(=O)O)NC(=O)C(C)(C)NC(=O)[C@@H](N)Cc1ccc(O)cc1)[C@@H](C)O)C(=O)N[C@@H](CO)C(=O)N[C@@H](CC(=O)O)C(=O)N[C@@H](Cc1ccc(O)cc1)C(=O)N[C@@H](CO)C(=O)N[C@H](C(=O)N[C@@](C)(CC(C)C)C(=O)N[C@@H](CC(C)C)C(=O)N[C@@H](CC(=O)O)C(=O)N[C@@H](CCCCN)C(=O)N[C@@H](CCCCNC(=O)COCCOCCNC(=O)COCCOCCNC(=O)CC[C@H](NC(=O)CCCCCCCCCCCCCCCCCCC(=O)O)C(=O)O)C(=O)N[C@@H](Cc1c[nH]cn1)C(=O)N[C@@H](CCC(N)=O)C(=O)NC(C)(C)C(=O)N[C@@H](CCC(=O)O)C(=O)N[C@@H](Cc1ccccc1)C(=O)N[C@H](C(=O)N[C@@H](CCC(=O)O)C(=O)N[C@@H](Cc1ccncc1)C(=O)N[C@@H](CC(C)C)C(=O)N[C@@H](CC(C)C)C(=O)N[C@@H](C)C(=O)N[C@@H](C)C(=O)NCC(=O)N1CCC[C@H]1C(=O)N[C@@H](CO)C(=O)N[C@@H](CO)C(=O)NCC(=O)N[C@@H](C)C(=O)N1CCC[C@H]1C(=O)N1CCC[C@H]1C(=O)N1CCC[C@H]1C(=O)N[C@@H](CO)C(N)=O)C(C)C)[C@@H](C)CC [Example 59] | 0.0202 | > 5000 | > 5000 |
